In patent US6576271B2, “Method for inhibiting inflammation using bioflavonoids” (Board of Trustees operating Michigan State University, priority 1998, dated 2003):
Read-outs that look alike come from different tables or passages of the source.

Assays:
PGHS-1 (COX-1) = molecular target: T1, PGHS-1 (COX-1) (Ovis aries, UniProt P05979); assay: COX-1 inhibition by flavonoids and isoflavonoids, O2 uptake (Example 5); type: biochemical; conditions: for COX-1 inhibitory activity among isoflavonoids: COX-1/COX-2 stated together; for COX-1 inhibitory activity: FIG. 9, 200 μm concentrations; for PGHS-1 (COX-1) inhibition: at 1000 μM concentrations
T1 construct: purchased Oxford Biomedical Research (Oxford, Mich., USA)
T1 sequence (P05979 25-600): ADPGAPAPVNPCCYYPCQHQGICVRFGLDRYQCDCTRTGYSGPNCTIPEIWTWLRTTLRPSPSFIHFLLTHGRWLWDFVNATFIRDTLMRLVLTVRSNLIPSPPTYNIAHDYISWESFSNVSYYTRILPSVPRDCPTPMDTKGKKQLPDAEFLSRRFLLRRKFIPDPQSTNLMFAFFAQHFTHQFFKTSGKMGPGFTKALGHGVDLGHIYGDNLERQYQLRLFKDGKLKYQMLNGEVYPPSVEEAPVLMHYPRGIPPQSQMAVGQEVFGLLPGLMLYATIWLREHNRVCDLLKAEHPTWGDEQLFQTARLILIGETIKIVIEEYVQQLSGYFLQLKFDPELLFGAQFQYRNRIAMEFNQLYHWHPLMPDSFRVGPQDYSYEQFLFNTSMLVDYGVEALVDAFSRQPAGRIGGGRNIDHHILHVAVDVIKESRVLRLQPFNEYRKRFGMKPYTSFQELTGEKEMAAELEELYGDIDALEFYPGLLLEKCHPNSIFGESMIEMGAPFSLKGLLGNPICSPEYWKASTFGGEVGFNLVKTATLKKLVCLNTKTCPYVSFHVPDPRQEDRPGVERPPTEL
Description: (§1) This is an antiinflammatory assay for cyclooxygenase inhibition activity of flavonoids and isoflavonoids. Arachidonic acid and microsomal suspensions of PGHS-1 (COX-1) and COX-2 (PGHS-2) were purchased from Oxford Biomedical Research (Oxford, Mich., USA). Genistein, genistin, naringenin, quercetin, 5,8,4′-trihydroxy-6,7-dimethoxyflavone, kaempferol-3-rutinoside and 3′-methoxy kaempferol 3-rutinoside were purified from BALATON tart cherry by HPLC and were identified by ^1H- and ^13C NMR spectral data. Daidzein and formononetin were purchased from Research Plus, Inc. (Bayonne, N.J., USA). […] Luteolin was purchased from Adams Chemical Co. (Round Lake, Ill., USA).
For measuring the COX activity, flavonoids or isoflavonoids were dissolved in DMSO to yield 40 mM stock solution and was further diluted to the desired concentration according to the COX-1/COX-2 inhibitory activity of each compound assayed.
Anti-inflammatory assay: COX activities were measured using microsomal suspensions of PGHS-1 and PGHS-2. Microsomal membranes (5 mg protein/mL in 0.1 M Tris HCl, pH 7.4) were prepared and assayed on the same day. COX-1 and COX-2 assay was performed at 37° C. controlled by a circulation bath (Model-1166, VWR Scientific Products, Chicago, Ill.) by monitoring the rate of O2 uptake using a 5357 Oxygen electrode (INSTECH Laboratory, Plymouth Meeting, Pa.) (Meade, E. A., et al., J. Biol. Chem. 268 6610-6614 (1993)).
Each assay mixture contained 600 μL of 0.1 M Tris-HCl, pH 8.0, 1 mM phenol, 17 μg hemoglobin and 10 μM arachidonate and were mixed in a microchamber (INSTECH Laboratory, Plymouth Meeting, Pa., USA). […] Reactions were initiated by adding […] of microsomal protein (5 μL). Instantaneous inhibition was determined by measuring the cyclooxygenase activity initiated by adding microsomal suspensions of PGHS-1 or PGHS-2 in the assay mixtures containing 10 μM arachidonate and various concentrations of test compounds. […] The kinetics of the enzyme activity was monitored by Biological Oxygen Monitor (YSI model 5300, Yellow Springs Instrument CO., Inc., Yellow Springs, Ohio) and collected in Quicklog Data Acquisition and Control computer software (Strawberry Tree Inc., Sunnyvale, Calif., USA).
The COX-1/COX-2 activity of BALATON cherry bioflavonoids was determined by monitoring the O2 uptake. Reactions were initiated by adding PGHS enzyme preparation. One unit of cyclooxygenase represents oxygenation of 1 nmol of arachidonate/min under the standard assay condition by the COX enzyme. This assay was a modification of the assay reported by DeWitt et al. (Dewitt D. L., et al., J. Biol. Chem. 265 5192-5198 (1990)). […] This methodology can also be used for COX-2 assay as well using COX-2 enzyme. […] COX-1 inhibitory activities of flavonoids, kaempferol, quercetin, luteolin, quercetin 3-rhamnoside, 5,8,4′-trihydroxy-6,7-dimethoxyflavone were compared. Kaempferol 3-rutinoside, 3′-methoxy kaempferol 3-rutinoside and naringenin (FIG. 9), and five isoflavonoids, genistein, genistin, daidzein, formononetin and biochanin A (FIG. 8).
COX-1/COX-2 inhibitory activities of each compound at different concentrations was calculated by comparing the tangent of O2 uptake curves of test compounds with that of blank control. Each assay was repeated 3 times and the IC50 values (50 inhibitory concentrations) were calculated by linear regression analysis.

COX-2 (PGHS-2) = molecular target: T2, COX-2 (PGHS-2) (Homo sapiens, UniProt P35354); assay: COX-2 inhibition by flavonoids and isoflavonoids, O2 uptake (Example 5); type: biochemical; conditions: COX-1/COX-2 stated together
T2 construct: purchased Oxford Biomedical Research (Oxford, Mich., USA)
T2 sequence (P35354 18-604): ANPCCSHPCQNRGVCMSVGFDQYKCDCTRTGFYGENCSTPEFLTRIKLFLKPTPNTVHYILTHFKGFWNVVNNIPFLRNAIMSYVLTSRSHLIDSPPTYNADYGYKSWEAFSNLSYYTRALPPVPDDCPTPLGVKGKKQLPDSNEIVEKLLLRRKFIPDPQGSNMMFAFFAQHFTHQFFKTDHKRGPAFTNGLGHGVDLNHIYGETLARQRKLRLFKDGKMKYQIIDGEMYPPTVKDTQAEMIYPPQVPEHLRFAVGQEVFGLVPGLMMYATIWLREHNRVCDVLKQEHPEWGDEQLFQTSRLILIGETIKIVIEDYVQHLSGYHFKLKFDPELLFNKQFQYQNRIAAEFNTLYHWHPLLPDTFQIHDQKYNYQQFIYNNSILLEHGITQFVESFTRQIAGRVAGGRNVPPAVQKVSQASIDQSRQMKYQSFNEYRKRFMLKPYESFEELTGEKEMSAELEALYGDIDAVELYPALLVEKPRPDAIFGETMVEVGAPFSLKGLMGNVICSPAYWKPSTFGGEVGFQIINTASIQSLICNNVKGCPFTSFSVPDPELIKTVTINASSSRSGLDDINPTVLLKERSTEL
Description: as §1, with “Ill., USA). […]” for “Ill., USA).”
Anti-inflammatory assay: COX activities were measured using microsomal suspensions of PGHS-1 and PGHS-2. […]
Each assay mixture contained 600 μL of 0.1 M Tris-HCl, pH 8.0, 1 mM phenol, 17 μg hemoglobin and 10 μM arachidonate and were mixed in a microchamber (INSTECH Laboratory, Plymouth Meeting, Pa., USA). […] Instantaneous inhibition was determined by measuring the cyclooxygenase activity initiated by adding microsomal suspensions of PGHS-1 or PGHS-2 in the assay mixtures containing 10 μM arachidonate and various concentrations of test compounds. […]
The COX-1/COX-2 activity of BALATON cherry bioflavonoids was determined by monitoring the O2 uptake. […]

[1] = Tsuda et al. 1994; cited from earlier work
cyclooxygenase = conditions: cited from earlier work; for COX inhibition: literature reports
[2] = Sanchez De Medina et al. 1996; cited from earlier work
PGHS-1 enzyme = molecular target: T3, PGHS-1 enzyme (Ovis aries, UniProt P05979); assay: Cyclooxygenase activity of PGHS-1, initial rate of O2 uptake (Example 4); type: biochemical, ram
T3 construct: a microsomal fraction of ram seminal vesicles containing PGHS-1 enzyme; tissue Oxford Biomedical Research (Oxford, Mich.); host or cells: ram seminal vesicles (microsomal fraction)
T3 sequence (P05979 25-600): T1 sequence (P05979 25-600)

[3] = mean of triplicate, FIGS. 10 and 11, read-out: IC50 for inhibition of PGHS-1 enzyme (COX-1)

## O=c1c(-c2ccc(O)cc2)coc2cc(O)cc(O)c12 [genistein]
PGHS-1 (COX-1)
  IC50: 80 µM
  COX-1 inhibitory activity among isoflavonoids: highest COX-1/COX-2 inhibitory activity
COX-2 (PGHS-2)
  COX-2 inhibitory activity among isoflavonoids: highest COX-1/COX-2 inhibitory activity

## O=c1c(-c2ccc(O)cc2)coc2cc(O[C@@H]3O[C@H](CO)[C@@H](O)[C@H](O)[C@H]3O)cc(O)c12 [genistin]
PGHS-1 (COX-1)
  COX-1 inhibitory activity among isoflavonoids: dramatically decreased
COX-2 (PGHS-2)
  COX-2 inhibitory activity among isoflavonoids: dramatically decreased

## OC[C@H]1O[C@@H](Oc2cc3c(O)cc(O)cc3[o+]c2-c2ccc(O)c(O)c2)[C@H](O)[C@@H](O)[C@@H]1O [cyanidin-3-glucoside]
[1]
  antioxidant activities: strong antioxidant activities

## O=C1C[C@@H](c2ccc(O)cc2)Oc2cc(O)cc(O)c21 [naringenin]
PGHS-1 (COX-1)
  COX-1 inhibitory activity: dramatically decreased

## O=c1cc(-c2ccccc2)oc2ccccc12 [unsubstituted flavone, flavone]
cyclooxygenase
  COX inhibition: good COX inhibitor

## COc1cc(-c2oc3cc(O)cc(O)c3c(=O)c2O[C@@H]2O[C@H](CO[C@@H]3O[C@@H](C)[C@H](O)[C@@H](O)[C@H]3O)[C@@H](O)[C@H](O)[C@H]2O)ccc1O [3′-methoxy kaempferol 3-rutinoside]
PGHS-1 (COX-1)
  PGHS-1 (COX-1) inhibition: not active

## C[C@@H]1O[C@@H](Oc2c(-c3ccc(O)c(O)c3)oc3cc(O)cc(O)c3c2=O)[C@H](O)[C@H](O)[C@H]1O [quercetin 3-rhamnoside]
PGHS-1 (COX-1)
  COX-1 inhibitory activity: not active
[2]
  in vivo anti-inflammatory activity: reported to have in vivo anti-inflammatory activity

## COc1ccc(-c2coc3cc(O)cc(O)c3c2=O)cc1 [biochanin A]
PGHS-1 (COX-1); [3]
  IC50: 350 µM

## O=c1cc(-c2ccc(O)c(O)c2)oc2cc(O)cc(O)c12 [luteolin]
PGHS-1 (COX-1); [3]
  IC50: 300 µM

## O=c1c(O)c(-c2ccc(O)c(O)c2)oc2cc(O)cc(O)c12 [quercetin]
PGHS-1 (COX-1)
  PGHS-1 (COX-1) inhibition: not active
PGHS-1 (COX-1); [3]
  IC50: 350 µM

## CC(C)=CCc1c(-c2ccc(O)cc2O)oc2c3c(cc(O)c2c1=O)OC(C)(C)C=C3 [morusin]
cyclooxygenase
  COX inhibition: active

## COc1c(OC)c(O)c2c(=O)cc(-c3ccc(O)cc3)oc2c1O [5,8,4′-trihydroxy-6,7-dimethoxyflavone]
PGHS-1 (COX-1)
  COX-1 inhibitory activity: little or no COX-1 inhibition
  PGHS-1 (COX-1) inhibition: not active

## C[C@@H]1O[C@@H](OC[C@H]2O[C@@H](Oc3cc4c(O)cc(O)cc4[o+]c3-c3ccc(O)c(O)c3)[C@H](O[C@@H]3O[C@H](CO)[C@@H](O)[C@H](O)[C@H]3O)[C@@H](O)[C@@H]2O)[C@H](O)[C@H](O)[C@H]1O [anthocyanin 1]
PGHS-1 enzyme; higher concentrations than 300-nM, enzyme (PGHS-1/PGHS-2) not specified
  effect on activity of enzyme at higher concentrations: increased the activity of enzyme

## O=c1c(-c2ccc(O)cc2)coc2cc(O)ccc12 [daidzein]
PGHS-1 (COX-1)
  IC50: 400 µM

## O=c1c(O)c(-c2ccccc2)oc2cc(O)cc(O)c12 [galangin]
cyclooxygenase; Wurm et al. 1982, read-out: IC50 cyclooxygenase inhibition
  IC50: 5.5 µM

## C[C@H]1O[C@H](OC[C@H]2O[C@@H](Oc3c(-c4ccc(O)cc4)oc4cc(O)cc(O)c4c3=O)[C@H](O)[C@@H](O)[C@@H]2O)[C@@H](O)[C@@H](O)[C@@H]1O [Kaempferol 3-rutinoside]
PGHS-1 (COX-1)
  PGHS-1 (COX-1) inhibition: not active

## Oc1cc(O)c2cc(O)c(-c3ccc(O)c(O)c3)[o+]c2c1 [cyanidin]
PGHS-1 enzyme; inhibition of cyclooxygenase activity, FIG. 7
  IC50: 90 µM

## O=c1c(O)c(-c2ccc(O)cc2)oc2cc(O)cc(O)c12 [kaempferol]
PGHS-1 (COX-1)
  COX-1 inhibitory activity: highest COX-1 inhibition
PGHS-1 (COX-1); [3]
  IC50: 180 µM
